Laboratory results published in US20250157614A1, “SUBSTANCE DELIVERY PLANNING SYSTEM” (Syqe Medical Ltd., priority 2019, published 2025).

Key:
[1] = Clinical trial: pharmacokinetic analysis of Δ9-THC plasma levels after single inhalation via metered dose inhaler
Protocol: An objective of the trial was to evaluate the effects of a single inhalation of vaporized ground cannabis doses comprising 0.5 mg or 1 mg THC, as compared to placebo. […] The patients were licensed to use medical cannabis and were guided to refrain from using cannabis at least 12 hours prior to the trial commencement. The patients were guided how to use the inhaler device and signed a written consent.
The trial included three sessions, with an interval of at least 48 hours between sessions. In each of the sessions, a randomized single dose or placebo was delivered to the patients via inhalation. During each session, at a plurality of pre-defined time points, the patients were cognitively tested using “Cambridge Neuropsychological Test Automated Battery”; questioned for assessment of pain (using the VAS); their blood pressure and heartrate were measured; and they were questioned regarding safety parameters, such as feeling “high”, dizziness, mouth dryness. Blood samples were collected at pre-defined time points for performing a pharmacokinetic analysis of THC (being the active substance, in accordance with some embodiments).

chronic pain = assay: Clinical trial: pain intensity (0-10 point VAS) after single inhalation via metered dose inhaler; format: in vivo, human (hospitalized adult patients)
Description: FIG. 5B presents effects of the three different interventions on pain intensity. About 1 VAS point decline in pain intensity was noted during the follow-up period following placebo administration.

[2] = single inhalation of 0.5 mg Δ9-THC
[3] = single inhalation of 1 mg Δ9-THC
[4] = 0.5 mg dosage, observed at 120 minutes following inhalation
[5] = 1 mg dosage, observed at 60 minutes following inhalation

## CCCCCc1cc(O)c2c(c1)OC(C)(C)[C@@H]1CCC(C)=C[C@@H]21 [Δ9-THC, Δ9-tetrahydrocannabinol]
[1]; [2]
  mean area under the curve of plasma concentration vs. time from 0 to infinity (AUC0→infinity): 300 ± 144 ng/min/mL
  time upon which maximum plasma concentration was reached (Tmax): 3.7 ± 1.4 min
[1]; single inhalation of 0.5 mg Δ9-THC, vaporized ground cannabis, 22 of 27 patients analysed
  mean maximum plasma Δ9-THC concentration (Cmax) ±SD: 14.3 ± 7.7 ng/mL
[1]; [3]
  AUC0→infinity: 769 ± 331 ng/min/mL
  Cmax ±SD: 33.8 ± 25.7 ng/mL
  Tmax: 4.4 ± 2.1 min
Chronic pain; [4]
  maximum change in VAS pain score: 1.95 points
  maximum change in VAS pain score (percent): 24%
Chronic pain; 0.5 mg Δ9-THC dose, follow-up period
  decline in pain intensity compared to placebo: greater decline in pain intensity
Chronic pain; [5]
  maximum change in VAS pain score: 2.95 points
  maximum change in VAS pain score (percent): 39.4%
Chronic pain; 1 mg dose, 15 minutes after inhalation and onward, RM-ANOVA p=0.0015 vs placebo, p=0.0058 vs 0.5 mg
  reduction in VAS compared to placebo (0 mg) and 0.5 mg: statistically significantly larger
